Measured values as given in PubChem BioAssay AID179 (DTP/NCI, 2004).
“And” between values parts separate entries of the source, which are not always exact repeats. Identical values can stand only once. The source made the active and inactive calls.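 Rule for the calls: active = compounds giving half or more protection of infected cells from virus-caused growth loss, again on retest; inactive = the rest.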

Test system: CEM cells HIV-1 protection, formazan growth assay
Test: NCI AIDS Antiviral Assay
Conditions: for IC50: measured here: growth of uninfected CEM cells
How it was run: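 Steps: treat uninfected and HIV-1-infected human CEM cells at five drug levels; quantify growth by soluble formazan; retest any compound reaching 50% protection; classify actives from the retest.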

SMILES | EC50 | IC50 [µM] | outcome
C=[N+]([O-])CCC1(O)C(CO[Si](C)(C)C(C)(C)C)OC(n2ccc(=O)[nH]c2=O)C1O[Si](C)(C)C(C)(C)C (centres undefined) | > 200 µM | 12 | –
COc1ccc(N=Nc2c(N)nn(C)c2N)cc1 | – | – | inactive
COc1cc(/C=C/C(=O)OCC23CC[C@@]4(C(=O)O)CCC(C)[C@H](C)C4C2=CCC2[C@@]4(C)CC[C@H](O)C(C)(C)C4CC[C@]23C)ccc1O (some centres undefined) | > 200 µM | 1.05 | –
COc1ccc(OC)c2c3c([nH]c12)C(=O)Nc1nc(N)nc(N)c1C3 | > 20 µM | 1 | –
CP(C)CC[PH+](CC[PH+](C)C)CC[PH+](C)C.[C-]#[O+].[C-]#[O+].[W] | – | – | inactive
COc1cc(/C=C/C(=O)CC(=O)/C=C/c2ccc(OC(=O)CCCCC3CCSS3)c(OC)c2)ccc1OC(=O)CCCCC1CCSS1 (centres undefined) | > 200 µM | > 200 | –
COc1ccc2[nH]c3c(c2c1)CC(=O)N1CCC[C@H](C1)CC31OCCCO1 | > 200 µM | 112 | –
CN(Cc1ccccc1)C(=NC#N)N(Cc1ccccc1)Cc1ccccc1 | > 19.5 µM | > 19.5 | –
CCn1c(=O)c2c3ccc(OC(C)=O)cc3[nH]c2c2ccc(OC(C)=O)cc21 | > 200 µM | 26.9 | –
CSc1nc(NC2OC(COC(C)=O)C(OC(C)=O)C(OC(C)=O)C2OC(C)=O)c(N=CC=Nc2c(NC3OC(COC(C)=O)C(OC(C)=O)C(OC(C)=O)C3OC(C)=O)nc(SC)n(C)c2=O)c(=O)n1C (centres undefined) | – | – | inactive
O=[N+]([O-])c1ccc2c(c1)NC(O)C(O)N2 (centres undefined) | > 200 µM | 174 | –
CNCc1c2c(O)c3c(O)c(C)c4c(c3c1O)C(=O)C(C)(O/C=C/C(OC)C(C)C(OC(C)=O)C(C)C(O)C(C)C(O)C(C)/C=C/C=C(/C)C(=O)N2)O4 (centres undefined) | > 200 µM | 16.6 | –
COc1cc2c(cc1OCCN1C(=O)c3cccc4cccc(c34)C1=O)N=C[C@@H]1CCCN1C2=O | > 41.7 µM | 5.5 | –
Cc1ccccc1-n1c(=O)c2ncn(C3CCCO3)c2n(-c2ccccc2C)c1=S (centres undefined) | > 200 µM | > 200 | –
CC(Nc1cc(Cl)cc(Cl)c1)c1ccncc1 (centres undefined) | > 200 µM | 15.8 | –
Cc1ccc2c(c1)-c1c(C#N)c(N)nc(-c3ccc(Cl)cc3)c1CCS2(=O)=O | > 200 µM | 3.16 | –
C1SSCC2=C1CSSC2 | > 13.2 µM | > 13.2 | –
O=C(Nc1cccc(-c2nc3ccccc3[nH]2)c1)c1ccc(C(=O)Nc2cccc(-c3nc4ccccc4[nH]3)c2)cc1 | > 200 µM | 91.2 | –
CCOCCN(Cc1ccc(CN(CCOCC)C(=O)C(Cl)Cl)cc1)C(=O)C(Cl)Cl | > 200 µM | > 200 | –
O=C(Cn1cc(-c2ccccc2)nn1)NC1CCCCC1 | > 200 µM | > 200 | –

SMILES | EC50 | IC50 [µM] | outcome
O=P1(O)c2ccccc2CSCc2ccccc21 | > 324 µM | > 324 | –
CN(C)c1nc(=NCc2ccccc2)ss1 | > 200 µM | 10.2 | –
COc1ccc(-c2c(C(=O)O)oc3cc(O)ccc3c2=O)cc1OC | > 200 µM | > 200 | –
COc1ccc(N2C(=O)/C(=C/c3ccc(N(CCC#N)CCC#N)cc3)N=C2c2ccccc2)c(OC)c1 | > 200 µM | 50.1 | –
N#CCCN(CCN(CCN(C(=O)Nc1ccccc1)c1ccccc1)C(=O)Nc1ccccc1)C(=O)Nc1ccccc1 | > 200 µM | 9.33 | –
COc1ccc(NC(=O)/C(=C\N2C(=O)CC(=O)NC2=S)C(C)=O)cc1 | > 200 µM | 25.7 | –
CCn1c(=O)c(N=O)c(N)n(CCO)c1=O | > 200 µM | > 200 | –
O=C(Cn1ccnc1[N+](=O)[O-])N(CCO)CCO | > 977 µM | > 977 | –
O=C(COC(=O)c1cccc2c(=O)c3ccccc3[nH]c12)Nc1ccc(Cl)cc1 | – | – | inactive
COc1ccc(N2NC(c3ccccc3)(c3ccccc3)C(C)C2=O)cc1 (centres undefined) | > 200 µM | 11 | –
Cc1ccc(NC(c2ccccc2)P(=O)(c2ccccc2)c2ccccc2)cc1 (centres undefined) | > 200 µM | > 200 | –
CC(=O)[O-].COc1cccc(/C=N\[N-]C(=O)c2ccncc2)c1.[Cu+2].[OH3+].[OH3+].c1cnc2c(c1)ccc1cccnc12 | > 200 µM | 61.7 | –
CC1CC(C)CC(C)C(O)/C(C#N)=C/C=C/CC(C2CCCC2C(=O)O)OC(=O)CC(O)C(C)C1 (centres undefined) | > 2.57 µM | 0.00575 | –
O=S(=O)(O)OC1CCCCC1Nc1ccccc1 (centres undefined) | – | – | inactive
Cc1c2ccccc2nc(CSCCC(C)C)[n+]1[O-] | 28.8 µM | 135 | –
CCCCCCCCCCCCCCCCOCC(COP(=O)([O-])OCC[n+]1ccc(N(C)C)cc1)OCC (centres undefined) | > 200 µM | 66.1 | –
NC(CSS(=O)(=O)O)=NCCCc1ccccc1 | > 200 µM | 110 | –
CN(C)CCN(C)c1ccc2c(=O)n(CCN(C)C)c(=O)n3c4ccccc4c(=O)c1c23 | > 0.2 µM | 0.11 | –
O=C(O)CC1SC2(C(=O)N(Cc3ccccc3)c3ccccc32)N(c2ccccc2)C1=O (centres undefined) | > 200 µM | > 100 | –
O=C1C=C(c2ccccc2)C2(c3ccccc3)C1C1C(c3ccccc3)=C(c3ccccc3)C2C12SCCS2 (centres undefined) | > 200 µM | 3.39 | –

SMILES | EC50 | IC50 [µM] | outcome
CN1CCN(C2=Nc3ccccc3Cc3ccccc32)CC1 | > 170 µM | 64.6 | –
O=C1CSC(C(N=Nc2ccc(Cl)cc2)c2nc3ccccc3[nH]2)=N1 (centres undefined) | > 1.95 µM | > 1.95 | –
CC(C)CCCC(C)[C@H]1CC[C@H]2[C@@H]3CC[C@H]4C[C@@H](CCC=C(c5cc(Cl)c(OCc6cccc(C(=O)O)c6)c(C(=O)O)c5)c5cc(Cl)c(OCc6cccc(C(=O)O)c6)c(C(=O)O)c5)CC[C@]4(C)[C@H]3CC[C@]12C (some centres undefined) | 5.5 µM and 1.78 µM | > 200 | –
O=C1/C(=C/c2cccc(Cl)c2)CCCc2ccccc21 | > 200 µM | 11.7 | –
Cc1ccc2n(c1)cc(-c1ccc(/C=N/NC(=N)N/N=C/c3ccc(-c4cn5cc(C)ccc5[n+]4C)cc3)cc1)[n+]2C | 15.5 µM | 49 | –
CCOc1ccc(N2CC(=O)N3CCCN3C(=O)C2)cc1 | > 123 µM | > 123 | –
CSc1ccc(OCC2OC2O)cc1 (centres undefined) | > 24.5 µM | > 24.5 | –
C[C@]12CCC(=O)C[C@H]1CCC(O)[C@@H]2Br (some centres undefined) | – | – | inactive
N#Cc1c2c([nH]c(=O)c1C#N)CCCC2 | > 200 µM | > 200 | –
Cc1cc(C)c2c(c1)CC1(Cc3ccc(C)c(C)c3C1=O)C2=O (centres undefined) | > 100 µM | > 100 | –
O=C(CC(C(=O)c1cccs1)c1ccsc1)c1ccc(Cl)s1 (centres undefined) | > 200 µM | 97.7 | –
CC(C)/C=N\n1c(N)c(C#N)c(C#N)c1C(C)C | > 200 µM | 63.1 | –
COc1ccc2c(c1)CCC1C=NOC21 (centres undefined) | > 245 µM | 107 | –
O=C(OCc1ccccc1C1CSCSC1)c1cc(C(=O)OCc2ccccc2C2CSCSC2)c(C(=O)OCc2ccccc2C2CSCSC2)cc1C(=O)OCc1ccccc1C1CSCSC1 | > 1.82 µM | > 1.82 | –
COC(=O)C1Cc2c(n(Cc3ccccc3)c3ccccc23)C(CCC(=O)O)N1C(C)C (centres undefined) | – | – | inactive
O=C1/C(=C/c2ccccc2)CN(C(=O)CCN2CCOCC2)C/C1=C\c1ccccc1 | > 79.4 µM | 0.525 | –
O=c1c2cc3ccccc3n2c(=O)c2cc3ccccc3n12 | > 5.01 µM | > 5.01 | –
COC(=O)C1=NC(=S)N=C(C(=O)OC)C12Cc1ccccc1C2=O | > 724 µM | 214 | –
